Consider eleven compounds from ChEMBL document CHEMBL1201862, “PubChem BioAssay data set” (2004).

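96-well plates; 48 h exposure; 5 concentrations. Endpoints by linear interpolation between flanking doses. Not reached: highest tested concentration assigned. GI50 = concentration required for 50% inhibition of growth.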 Calls of active or inactive are those of the source. Cut-off read from the data, not from the text of the source: active = GI50 up to about 1.1 µM and inactive = higher.

For orientation: GI50 means the concentration giving 50% growth inhibition.

Common to all, as to assay: DTP human tumour cell line panel, 48 h
Assay [1] concerns ACHN.
Assay [2] relates to EKVX.
The subject of assay [3] is HCT-116.
Assay [4] concerns HCT-15.
The subject of assay [5] is HOP-62.
For assay [6], the system named is IGROV-1.
The subject of assay [7] is KM12.
Assay [8] has as its system MCF7.
The subject of assay [9] is MDA-MB-435.
The test system of assay [10] is NCI-H226.
Assay [11] concerns NCI-H460.
The test system of assay [12] is NCI-H522.
The subject of assay [13] is OVCAR-8.
Assay [14] concerns SF-295.
Assay [15] concerns SK-MEL-28.
Assay [16] deals with SK-MEL-2.
Assay [17] relates to SK-MEL-5.
Assay [18] deals with SN12C.
Assay [19] has as its system BT-549.

`CCCCCc1cc2c(cc1O)CC[C@@H]1[C@@H]2CC[C@]2(C)[C@@H](O)CC[C@@H]12`: the GI50 in assay [1] was 14.1 µM (inactive); in [2], 17.9 µM (inactive); in assay [3], 17.3 µM (inactive); in [4], 15.9 µM; in assay [5] it was 22.4 µM (inactive); in assay [6] it was 18.5 µM (inactive). Also, the GI50 is 10.9 µM (inactive) in assay [7]; 16.4 µM (inactive) in [8]; 15.7 µM (inactive) in [9]; 14.5 µM (inactive) in [10]; 17.4 µM (inactive) in assay [11]; 18.8 µM (inactive) in assay [12]. In addition, the GI50 in assay [13] is 20.1 µM (inactive); in [14], 13.4 µM (inactive); in assay [15] it was 16.2 µM (inactive); in assay [16] it was 23.3 µM (inactive); in [17], 19.8 µM (inactive); in [18], 16.2 µM (inactive).

`CSc1ccc(NC(=S)NN(C)C)cc1`: the GI50 in assay [1] is > 10 µM (inactive); in assay [2], > 10 µM (inactive); in assay [3], > 10 µM (inactive); in assay [4], > 10 µM; in assay [5] it was > 10 µM (inactive); in [6] it was > 10 µM (inactive). Besides, the GI50 in assay [7], in [8], in assay [9], in assay [10], in assay [11] and in assay [12] was > 10 µM (inactive) each time. Moreover, the GI50 in assay [13], in assay [14], in assay [15], in assay [16], in assay [17] and in [18] was > 10 µM (inactive) throughout.

In the case of `O=C1NCCCNCCCNCCCNC(=O)c2cccc1n2`, the GI50 was > 100 µM (inactive) in assay [1]; > 100 µM (inactive) in [19]; > 100 µM (inactive) in assay [2]; > 100 µM (inactive) in [3]; > 100 µM in [4]; > 100 µM (inactive) in assay [5]. Further, the GI50 in [6], in [7], in assay [9], in assay [10], in [11] and in assay [12] was > 100 µM (inactive) each time. Further, the GI50 in assay [13] was > 100 µM (inactive); in assay [14], > 100 µM (inactive); in assay [15] it was > 100 µM (inactive); in [16] it was 63.2 µM (inactive); in assay [17], > 100 µM (inactive); in assay [18] it was > 100 µM (inactive).

As for `COC(=O)C(Cc1c(C2Nc3ccccc3C2CC(NC(C)=O)C(=O)OC)[nH]c2ccccc12)NC(C)=O` (stereo not drawn), the GI50 in [1] was > 100 µM (inactive); in assay [19], > 100 µM (inactive); in assay [2] it was > 100 µM (inactive); in assay [3], > 100 µM (inactive); in assay [4] it was > 100 µM; in assay [5] it was > 100 µM (inactive). For the same compound, the GI50 in [6], in assay [7], in [9], in assay [10], in assay [11] and in assay [12] was > 100 µM (inactive) each time. Besides, the GI50 in assay [13], in [14], in assay [15], in assay [16], in assay [17] and in [18] was > 100 µM (inactive) throughout.

As to `CC(C)(C)OC(=O)Cn1ncn(NC(=O)Cc2ccccc2)c1=S`, the GI50 in [1] was > 10 µM (inactive); in assay [19], > 10 µM (inactive); in assay [2], > 10 µM (inactive); in [3], > 10 µM (inactive); in assay [4] it was > 10 µM; in [5], > 10 µM (inactive). Besides, the GI50 in assay [6], in assay [7], in [8], in assay [9], in assay [11] and in assay [12] was > 10 µM (inactive) each time. Besides, the GI50 in assay [13], in assay [14], in assay [15], in assay [17] and in assay [18] was > 10 µM (inactive) in each case.

Take `OC(Cc1cnnc2ccccc12)C(Cl)(Cl)Cl` (stereo not drawn): the GI50 was > 10 µM (inactive) in assay [1]; > 10 µM (inactive) in assay [2]; > 10 µM (inactive) in assay [3]; > 10 µM in [4]; > 10 µM (inactive) in assay [5]; > 10 µM (inactive) in assay [6]. Moreover, the GI50 in assay [7], in [8], in assay [9], in [10], in assay [11] and in assay [12] was > 10 µM (inactive) throughout. The GI50 in assay [13], in [14], in assay [15], in assay [16], in assay [17] and in [18] was > 10 µM (inactive) each time.

For `N=c1c2c(=S)n(-c3ccccc3)c(=S)n(-c3ccccc3)c2nc(SCCN2CCCC2)n1-c1ccccc1`, the GI50 was 1.77 µM (inactive) in [1]; 1.92 µM (inactive) in assay [19]; 2.49 µM (inactive) in assay [2]; 2.09 µM (inactive) in assay [3]; 1.6 µM in [4]; 3.4 µM (inactive) in assay [5]. In addition, the GI50 is 1.77 µM (inactive) in [6]; 5.2 µM (inactive) in [7]; 1.87 µM (inactive) in assay [9]; 7.59 µM (inactive) in assay [10]; 1.72 µM (inactive) in assay [11]; 1.72 µM (inactive) in [12]. Besides, the GI50 in assay [13] was 2.01 µM (inactive); in [14], 15.2 µM (inactive); in assay [15] it was 3.69 µM (inactive); in assay [16], 5.94 µM (inactive); in assay [17], 3.27 µM (inactive); in [18], 1.86 µM (inactive).

On to `CCO/C=N\C1=C(C#N)SC2=N/C(=C\c3ccc(OC)cc3)C(=O)N21`, for which the GI50 in assay [1] is 94.2 µM (inactive); in assay [2], 60.1 µM (inactive); in [3], > 100 µM (inactive); in assay [4], 85.9 µM; in assay [6], 96.8 µM (inactive); in assay [7], > 100 µM (inactive). For the same compound, the GI50 in assay [8] was > 100 µM (inactive); in assay [9], > 100 µM (inactive); in [10] it was > 100 µM (inactive); in [12] it was 79.8 µM (inactive); in assay [13], > 100 µM (inactive); in assay [14], 59.3 µM (inactive). Besides, the GI50 in [15], in assay [17] and in [18] was > 100 µM (inactive) throughout.

For the compound `CSc1cc(Cl)c(C)cc1S(=O)(=O)NC(=O)NNc1ccc(F)cc1`, the GI50 in assay [1] is 66.8 µM (inactive); in assay [2], > 100 µM (inactive); in [3], > 100 µM (inactive); in assay [4], > 100 µM; in [5], > 100 µM (inactive); in assay [6] it was > 100 µM (inactive). Besides, the GI50 in [7], in [8], in assay [9], in assay [10], in assay [11] and in [12] was > 100 µM (inactive) throughout. Besides, the GI50 in assay [13], in assay [14], in assay [15], in assay [16], in [17] and in [18] was > 100 µM (inactive) throughout.

As for `COc1cc([C@@H]2c3cc4c(cc3[C@@H](Nc3ccc([N+](=O)[O-])cc3C(=O)c3ccccc3)[C@H]3COC(=O)[C@H]23)OCO4)cc(OC)c1OC`, the GI50 in assay [1] is 0.304 µM (active); in assay [2] it was > 100 µM (inactive); in assay [3], 0.23 µM (active); in [4], 0.269 µM; in assay [5], 0.282 µM (active); in assay [6], 0.5 µM (active). For the same compound, the GI50 was 0.266 µM (active) in assay [7]; 0.26 µM (active) in assay [8]; 0.071 µM (active) in assay [9]; 0.726 µM (active) in assay [10]; 0.258 µM (active) in assay [11]; 0.16 µM (active) in [12]. In addition, the GI50 in [13] is 0.515 µM (active); in assay [14], 0.196 µM (active); in assay [16], 3.28 µM (inactive); in assay [17] it was 0.2 µM (active); in [18] it was 0.416 µM (active).

Take `CCN1C(=O)/C(=C/Nc2ccccc2)S/C1=N/Nc1nc(-c2ccc(O)c(O)c2)cs1`: the GI50 in [1] is 15.3 µM (inactive); in assay [2], 16.9 µM (inactive); in assay [3], 8.63 µM (inactive); in [4], 7.76 µM; in assay [5], 6.22 µM (inactive); in [6], 32.6 µM (inactive). Also, the GI50 in assay [7] was 5.01 µM (inactive); in [8], 4 µM (inactive); in [9] it was 1.71 µM (inactive); in [10], 51.5 µM (inactive); in [11] it was 35.2 µM (inactive); in assay [12] it was 3.66 µM (inactive). Also, the GI50 was 5.07 µM (inactive) in [13]; 4.46 µM (inactive) in [14]; 7.59 µM (inactive) in assay [15]; 4.31 µM (inactive) in [16]; 3.96 µM (inactive) in assay [17]; 4.24 µM (inactive) in [18].
